The text below walks through data of patent publication US9233961B2, “Compounds and compositions for the treatment of parasitic diseases” (Novartis AG, priority 2013, dated 2016).

One may read the EC50 as the concentration at which the effect is half-maximal.

For assay [1], the system named is L. donovani HU3 strain in mouse peritoneal macrophages. Kind of assay: Assay for proliferation of Leishmania parasites in mouse peritoneal macrophages. Type of assay: cell-based, Leishmania donovani. The note with it: Leishmania donovani, Peritoneal macrophage. The essentials:
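BALB/c peritoneal macrophages infected 24 h with L. donovani HU3 amastigotes taken from spleens of mice infected 9–11 weeks, then treated with compound for 5 days at 37° C, 5% CO2. Parasite nuclei counted by SYBR Green imaging after fixation; EC50 from percentage inhibition.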

The subject of assay [2] is Leishmania donovani axenic amastigote parasites. Kind of assay: Leishmania donovani axenic amastigote proliferation assay. In kind it is cell-based. The method, boiled down: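 L. donovani axenic amastigotes (9600/well) in RPMI 1640 with 20% heat-inactivated FBS, folic acid, adenosine, glucose and 25 mM MES, pH 5.5, were incubated with compounds for 2 days at 37 °C, 5% CO2. Viability read by CellTiter-Glo luminescence; EC50 calculated.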

Where [3] appears, read: read-out: L. donavani Macrophage EC50.
Where [4] appears, read: axenic amastigotes in vitro, read-out: L. donovani amastigotes EC50.
The mark [5] stands for this setting: read-out: L. donavani Macrophage EC50 (μM).

Where two headings read alike, the source gives them in different places.

As for `O=C(Nc1ccc(C(F)(F)F)cc1)Nc1ccc(F)c(-c2nc3ncc(-c4ccc(N5CCOCC5)cc4)cc3o2)c1` [Compound 392], the concentration giving a half-maximal response (EC50) was 8.4 µM in assay [1] (setting [3]) and over 25 µM in assay [2] (setting [4]).
On to `CCc1cnc2nc(-c3cc(NC(=O)c4ccco4)ccc3Cl)oc2c1` [Example 419, N-(4-chloro-3-{6-ethyl-[1,3]oxazolo[4,5-b]pyridin-2-yl}phenyl)-furan-2-carboxamide], for which the EC50 was 2.46 µM in assay [1] (setting [5]) and 0.36 µM in assay [2] (setting [4]).
Consider `Cc1cnc2nc(-c3cc(NC(=O)[C@H]4C[C@@H](O)CN4)ccc3F)[nH]c2c1` [Compound 271], for which the EC50 in assay [1] (setting [3]) is over 50 µM; in assay [2] (setting [4]), over 25 µM.
With `O=C(Nc1ccc(Cl)c(-c2nc3ncc(-c4ccc(CCN5CCOCC5)cc4)cc3[nH]2)c1)c1ccco1` [Example 6, N-[4-chloro-3-(6-{4-[2-(morpholin-4-yl)ethyl]phenyl}-1H-imidazo[4,5-b]pyridin-2-yl)phenyl]furan-2-carboxamide], the EC50 came out at 0.65 µM in assay [1] (setting [3]) and 1.96 µM in assay [2] (setting [4]).
The matching figures for `C=Cc1cnc2nc(-c3cc(NC(=O)c4ccco4)ccc3Cl)[nH]c2c1` [Example 74, N-(4-chloro-3-{6-ethenyl-1H-imidazo[4,5-b]pyridin-2-yl}phenyl)furan-2-carboxamide]: 3.09 µM and 0.45 µM.
For `CNc1ccc(-c2cnc3nc(-c4cc(NC(=O)N5CCCC5)ccc4Cl)[nH]c3c2)cc1` [Compound 292, N-(4-chloro-3-{6-[4-(methylamino)phenyl]-1H-imidazo[4,5-b]pyridin-2-yl}phenyl)pyrrolidine-1-carboxamide], the EC50 in assay [1] (setting [3]) is 0.17 µM; in assay [2] (48 h, L. donovani axenic amastigotes, 2 day incubation, Cell TiterGlo luminescence, read-out: EC50) it was about 0.08 µM; in assay [2] (setting [4]) it was 0.08 µM.
`Cc1n[nH]cc1-c1cnc2nc(-c3cc(NC(=O)Nc4ccc(C(F)(F)F)cc4)ccc3F)oc2c1` [Compound 394]: the EC50 amounted to 4.8 µM in assay [1] (setting [3]) and 11.7 µM in assay [2] (setting [4]).
The matching figures for `Cc1cnc2nc(-c3cc(NC(=O)c4ccco4)ccc3Cl)[nH]c2c1` [Example 1, N-(4-chloro-3-{6-methyl-1H-imidazo[4,5-b]pyridin-2-yl}phenyl)furan-2-carboxamide]: 9 µM and 2.2 µM.
The corresponding values for `Cc1cnc2nc(-c3cc(NC(=O)Nc4ccc(C(F)(F)F)cc4)ccc3Cl)[nH]c2c1` [Compound 248] are 23.1 µM and over 25 µM.
In the case of `CN(C)c1ccc(F)c(-c2nc3ncc(-c4ccc(OCCN5CCOCC5)cc4)cc3o2)c1` [Example 420, 4-Fluoro-N,N-dimethyl-3-(6-{4-[2-(morpholin-4-yl)ethoxy]phenyl}-[1,3]oxazolo[4,5-b]pyridin-2-yl)aniline], the concentration giving a half-maximal response (EC50) in assay [1] (setting [5]) was over 50 µM; in assay [2] (setting [4]), over 25 µM.
The matching figures for `O=C(Nc1ccc(Cl)c(-c2nc3ncc(-c4ccccc4)cc3o2)c1)c1ccco1` [Example 416, N-(4-chloro-3-{6-phenyl-[1,3]oxazolo[4,5-b]pyridin-2-yl}phenyl)-furan-2-carboxamide]: 2.9 µM and 1.52 µM.
As to `Cc1cnc2nc(-c3cc(NC(=O)c4cncc(Cl)n4)ccc3Cl)[nH]c2c1` [Compound 127], the EC50 in assay [1] (setting [3]) was 4.8 µM; in assay [2] (setting [4]), 1.2 µM.
The matching figures for `O=C(Nc1ccc(Cl)c(-c2nc3ncc(-c4ccc(N5CCNCC5)cc4)cc3[nH]2)c1)N1CCCC1` [Compound 294]: 16.9 µM and over 25 µM.
The corresponding values for `CCOc1cc(C(=O)Nc2ccc(Cl)c(-c3nc4ncc(C)cc4[nH]3)c2)ccn1` [Compound 93] are over 35.5 µM and over 25 µM.
The matching figures for `COCn1c(-c2cc(NC(=O)N3CCCC3)ccc2Cl)nc2ncc(Br)cc21` [Example 386]: 4.3 µM and 4.3 µM.
For the molecule `Cc1cnc2nc(-c3cc(NC(=O)[C@@H]4CCCN4)ccc3F)[nH]c2c1` [Compound 273], the EC50 in assay [1] (setting [3]) was over 50 µM; in assay [2] (setting [4]), over 25 µM.
The corresponding values for `Cc1cnc2nc(-c3cc(NC(=O)c4ccc(OC(F)(F)F)cc4)ccc3Cl)[nH]c2c1` [Compound 210] are over 37.7 µM and over 22 µM.
The matching figures for `CN(C)Cc1ccc(C(=O)Nc2ccc(Cl)c(-c3nc4ncc(Br)cc4[nH]3)c2)o1` [Example 372, N-(3-{6-bromo-1H-imidazo[4,5-b]pyridin-2-yl}-4-chlorophenyl)-5-[(dimethylamino)methyl]furan-2-carboxamide]: 2.52 µM and over 25 µM.
The corresponding values for `CC(C)OC(=O)Nc1ccccc1-c1cnc2nc(-c3cc(NC(=O)c4ccco4)ccc3Cl)[nH]c2c1` [Compound 37] are 0.55 µM and 0.46 µM.
Turning to `Cc1cnc2nc(-c3cc(NC(=O)c4ccnc(C)c4)ccc3Cl)[nH]c2c1` [Compound 188], the EC50 in assay [1] (setting [3]) is 11.6 µM; in assay [2] (setting [4]), 2.26 µM.
On to `COC(=O)Nc1ccc(Cl)c(-c2nc3ncc(C#N)cc3[nH]2)c1` [Compound 290], for which the results for the EC50 in assay [1] (setting [3]) and in assay [2] (setting [4]) were 17.4 µM and 15.6 µM, respectively.
The matching figures for `O=C(Nc1ccc(Cl)c(-c2nc3ncc(-c4ccc(N5CCCC5)cc4)cc3[nH]2)c1)c1ccco1` [Compound 68]: 4.9 µM and 2.85 µM.
The corresponding values for `COCCOc1ccc(-c2cnc3nc(-c4cc(NC(=O)c5ccco5)ccc4Cl)[nH]c3c2)cc1` [Compound 60] are 3.5 µM and 0.8 µM.
The matching figures for `CCCc1cnc2nc(-c3cc(NC(=O)c4ccco4)ccc3Cl)[nH]c2c1` [Example 75, N-(4-chloro-3-{6-propyl-1H-imidazo[4,5-b]pyridin-2-yl}phenyl)furan-2-carboxamide]: 25.6 µM and 9.3 µM.
With `CN(C)c1ccc(-c2cnc3nc(-c4cc(NC(=O)c5ccco5)ccc4Cl)[nH]c3c2)cn1` [Compound 65], the values for the EC50 in assay [1] (setting [3]) and in assay [2] (setting [4]) were 1.58 µM and 0.197 µM, respectively.
The corresponding values for `Cc1cnc2nc(-c3cc(NC(=O)c4ccnnc4)ccc3Cl)[nH]c2c1` [Compound 92] are over 50 µM and over 20 µM.
For `CC(C)OC(=O)Nc1ccc(-c2cnc3nc(-c4cc(NC(=O)Nc5ccc(C(F)(F)F)cc5)ccc4F)oc3c2)cc1` [Compound 396], the values for the EC50 in assay [1] (setting [3]) and in assay [2] (setting [4]) were over 50 µM and 16.1 µM, respectively.
The corresponding values for `Cc1cnc2nc(-c3cc(NC(=O)N4CC[C@@H](F)C4)ccc3Cl)[nH]c2c1` [Compound 234] are 9.7 µM and 2.03 µM.
The matching figures for `O=C(Nc1ccc(Cl)c(-c2nc3ncc(C(F)(F)F)cc3[nH]2)c1)c1ccco1` [Example 276, N-{4-Chloro-3-[6-(trifluoromethyl)-1H-imidazo[4,5-b]pyridin-2-yl]phenyl}furan-2-carboxamide]: 6 µM and 1.56 µM.
For the molecule `Cc1cnc2nc(-c3cc(NC(=O)c4ccco4)ccc3Cl)oc2c1` [Example 418, N-(4-chloro-3-{6-methyl-[1,3]oxazolo[4,5-b]pyridin-2-yl}phenyl)-furan-2-carboxamide], the EC50 in assay [1] (setting [5]) was 8.4 µM; in assay [2] (setting [4]), 1.51 µM.
As for `N#Cc1ccc(C(=O)Nc2ccc(Cl)c(-c3nc4ncc(C(F)(F)F)cc4[nH]3)c2)o1` [Compound 281], the EC50 in assay [1] (setting [3]) was 6.3 µM; in assay [2] (setting [4]) it was 1.98 µM.
The corresponding values for `O=C(Nc1ccc(Cl)c(-c2nc3ncc(Br)cc3[nH]2)c1)c1cocn1` [Compound 369] are over 50 µM and over 25 µM.
On to `O=C(Nc1ccc(Cl)c(-c2nc3ncc(Cl)cc3[nH]2)c1)c1ccco1` [Compound 2], for which the EC50 in assay [1] (setting [3]) was found to be 4 µM; in assay [2] (setting [4]), 1.39 µM.
The corresponding values for `Cc1cnc2nc(-c3cc(NC(=O)CCN)ccc3F)[nH]c2c1` [Compound 268] are over 50 µM and over 25 µM.
As for `O=C(Nc1ccc(Cl)c(-c2nc3ncc(-c4ccc(OC(F)(F)F)cc4)cc3[nH]2)c1)c1ccco1` [Compound 25], the EC50 was found to be 9.5 µM in assay [1] (setting [3]) and 5.6 µM in assay [2] (setting [4]).
For `COc1ccc(C(=O)Nc2ccc(Cl)c(-c3nc4ncc(C)cc4[nH]3)c2)cc1` [Compound 211], the figures for the 50% effective concentration (EC50) in assay [1] (setting [3]) and in assay [2] (setting [4]) were over 27.9 µM and over 22.8 µM, respectively.
`CC(C)(C)c1nnc(C(=O)Nc2ccc(F)c(-c3nc4ncc(Br)cc4o3)c2)o1` [Compound 407]: the half-maximal effective concentration (EC50) was over 4.2 µM in assay [1] (setting [3]) and over 25 µM in assay [2] (setting [4]).
As for `O=C(Nc1ccc(Cl)c(-c2nc3ncc(-c4ccc(CN5CCOCC5)cc4)cc3[nH]2)c1)c1ccco1` [Compound 16], the EC50 in assay [1] (setting [3]) worked out at 1.63 µM; in assay [2] (setting [4]), 2.07 µM.
As to `O=C(Nc1ccc(F)c(-c2nc3ncc(-c4ccccc4)cc3o2)c1)N1CCCC1` [Example 415, N-(4-fluoro-3-{6-phenyl-[1,3]oxazolo[4,5-b]pyridin-2-yl}phenyl)pyrrolidine-1-carboxamide], the results for the concentration for a half-maximal effect (EC50) in assay [1] (setting [5]) and in assay [2] (setting [4]) were 0.1 µM and 0.4 µM, respectively.
With `O=C(Nc1ccc(C(F)(F)F)cc1)Nc1ccc(F)c(-c2nc3ncc(-c4ccc(N5CCCCC5)cc4)cc3o2)c1` [Compound 399], the EC50 was determined as 5.9 µM in assay [1] (setting [3]) and 15.8 µM in assay [2] (setting [4]).
The corresponding values for `O=C(Nc1ccc(F)c(-c2nc3ncc(Br)cc3[nH]2)c1)N1CCOCC1` [Compound 365] are over 50 µM and 19.8 µM.
`CC(C)OC(=O)Nc1ccc(Cl)c(-c2nc3ncc(-c4ccccc4NC(=O)OC(C)C)cc3n2C(=O)OC(C)C)c1` [Compound 336]: the figures for the concentration for a half-maximal effect (EC50) in assay [1] (setting [3]) and in assay [2] (setting [4]) were 2.18 µM and 1.89 µM, respectively.
The matching figures for `Cc1cncc(C(=O)Nc2ccc(Cl)c(-c3nc4ncc(C)cc4[nH]3)c2)c1` [Compound 102]: 11.7 µM and 16.1 µM.
